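In this assay, cells in 96-well plates receive the compound at five concentrations for 48 hours. Endpoints are linearly interpolated between the surrounding concentrations. TGI: total growth inhibition.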
Tests used:
Test in all cases: DTP human tumour cell line panel, 48 h
[1] = system: ACHN renal
[2] = system: CCRF-CEM leukemia
[3] = system: EKVX NSCLC
[4] = system: HCC-2998 colon
[5] = system: IGROV1 ovarian
[6] = system: LOX IMVI melanoma
[7] = system: MCF7 breast
[8] = system: NCI-H23 lung
[9] = system: OVCAR-8 ovarian
[10] = system: RXF 393 renal

## O=c1[nH]c2c(Nc3c4ccccc4nc4ccccc34)c([N+](=O)[O-])c(Nc3c4ccccc4nc4ccccc34)c([N+](=O)[O-])c2[nH]1
[1]
  TGI: 4.78 µM
[2]
  TGI: 6.02 µM
[3]
  TGI: 5.2 µM
[4]
  TGI: 3.5 µM
[5]
  TGI: 5.18 µM
[6]
  TGI: 7.79 µM
[7]
  TGI: 10.2 µM
[8]
  TGI: 2.74 µM
[9]
  TGI: 12.6 µM
[10]
  TGI: 7.19 µM

## C[C@H]1CCC/C=C/[C@@H]2C[C@H](OC3OC(CO)C(O)C(O)C3O)C[C@H]2[C@H](O)/C=C/C(=O)O1 (stereo not given in full)
[1]
  TGI: > 100 µM
[2]
  TGI: > 100 µM
[3]
  TGI: > 100 µM
[4]
  TGI: > 100 µM
[5]
  TGI: > 100 µM
[6]
  TGI: > 100 µM
[7]
  TGI: > 100 µM
[8]
  TGI: > 100 µM
[9]
  TGI: > 100 µM
[10]
  TGI: 87.3 µM

## COc1cc(C=O)cc(C=Nc2ccc(Br)cc2)c1O
[1]
  TGI: 49.4 µM
[2]
  TGI: 27.7 µM
[3]
  TGI: > 100 µM
[4]
  TGI: 38.9 µM
[5]
  TGI: > 100 µM
[6]
  TGI: 29.8 µM
[7]
  TGI: > 100 µM
[8]
  TGI: > 100 µM
[9]
  TGI: > 100 µM
[10]
  TGI: 15 µM

## CCCCCCCCCCCC1=C(O)C(=O)C(CC2=C(O)C(=O)C(CCCCCCCCCCC)=C(O)C2=O)=C(O)C1=O
[1]
  TGI: > 100 µM
[2]
  TGI: 64.4 µM
[3]
  TGI: > 100 µM
[4]
  TGI: > 100 µM
[5]
  TGI: > 100 µM
[6]
  TGI: > 100 µM
[7]
  TGI: > 100 µM
[8]
  TGI: > 100 µM
[9]
  TGI: > 100 µM
[10]
  TGI: 25.2 µM

## COCc1cc2c(s1)C(=O)C1=C(C2=O)C2(C=C(Br)C(=O)C(Br)=C2)CCN1
[1]
  TGI: 18 µM
[2]
  TGI: 16.7 µM
[3]
  TGI: 26.3 µM
[4]
  TGI: 24.8 µM
[5]
  TGI: 19.3 µM
[6]
  TGI: 7.68 µM
[7]
  TGI: 28.1 µM
[8]
  TGI: 9.51 µM
[9]
  TGI: 14.8 µM
[10]
  TGI: 6.94 µM

## Nc1c(C(=O)O)c2ccc([N+](=O)[O-])cc2c(=O)n1-c1nc2ccccc2s1
[1]
  TGI: > 100 µM
[2]
  TGI: > 100 µM
[3]
  TGI: > 100 µM
[4]
  TGI: > 100 µM
[5]
  TGI: > 100 µM
[6]
  TGI: > 100 µM
[7]
  TGI: > 100 µM
[8]
  TGI: > 100 µM
[9]
  TGI: > 100 µM
[10]
  TGI: > 100 µM

## COc1ccc2oc(=O)c(-c3cc4c(c(C)n3)c(=O)oc3ccc(OC)cc34)cc2c1
[1]
  TGI: 86 µM
[2]
  TGI: > 100 µM
[3]
  TGI: > 100 µM
[4]
  TGI: > 100 µM
[5]
  TGI: > 100 µM
[6]
  TGI: > 100 µM
[7]
  TGI: > 100 µM
[8]
  TGI: > 100 µM
[9]
  TGI: > 100 µM
[10]
  TGI: > 100 µM

## OCCN1CCN(c2nc(N3CCCC3)c3nc(Cl)c(NCc4ccccc4)nc3n2)CC1
[1]
  TGI: 20.7 µM
[2]
  TGI: 11.7 µM
[3]
  TGI: 25 µM
[4]
  TGI: 3.56 µM
[5]
  TGI: 23.1 µM
[6]
  TGI: 10.6 µM
[7]
  TGI: 17.2 µM
[8]
  TGI: 29.4 µM
[9]
  TGI: 23.5 µM
[10]
  TGI: 3.68 µM

## O=C(O)[C@H]1NC[C@H]2C(Br)=NO[C@@H]12
[1]
  TGI: > 100 µM
[2]
  TGI: > 100 µM
[3]
  TGI: > 100 µM
[4]
  TGI: > 100 µM
[5]
  TGI: > 100 µM
[6]
  TGI: > 100 µM
[7]
  TGI: > 100 µM
[8]
  TGI: > 100 µM
[9]
  TGI: > 100 µM
[10]
  TGI: > 100 µM

## Cc1n[nH]c(=O)n1-n1cccc1
[1]
  TGI: > 100 µM
[2]
  TGI: > 100 µM
[3]
  TGI: > 100 µM
[4]
  TGI: > 100 µM
[5]
  TGI: > 100 µM
[6]
  TGI: > 100 µM
[7]
  TGI: > 100 µM
[8]
  TGI: > 100 µM
[9]
  TGI: > 100 µM
[10]
  TGI: > 100 µM

## CC1(C)C(=O)/C(=C/c2ccccc2)C(C)(C)C1(C)C
[1]
  TGI: > 100 µM
[2]
  TGI: > 71.5 µM
[3]
  TGI: > 100 µM
[4]
  TGI: > 100 µM
[5]
  TGI: > 100 µM
[6]
  TGI: > 100 µM
[7]
  TGI: > 100 µM
[8]
  TGI: > 100 µM
[9]
  TGI: > 100 µM
[10]
  TGI: > 100 µM

## COc1cc2c(cc1O)C(Cc1ccc(OCc3ccccc3)c(OCc3ccccc3)c1)N(C(=O)NCCc1ccccc1)CC2 (stereo not given)
[1]
  TGI: > 100 µM
[2]
  TGI: > 100 µM
[3]
  TGI: > 100 µM
[4]
  TGI: > 100 µM
[5]
  TGI: > 100 µM
[6]
  TGI: > 100 µM
[7]
  TGI: > 100 µM
[8]
  TGI: > 100 µM
[9]
  TGI: > 100 µM
[10]
  TGI: > 100 µM

## O=C(O)CCCc1ccc2c(c1)C(C(=O)O)CC2 (stereo not given)
[1]
  TGI: > 100 µM
[2]
  TGI: > 100 µM
[3]
  TGI: > 100 µM
[4]
  TGI: > 100 µM
[5]
  TGI: > 100 µM
[6]
  TGI: > 100 µM
[7]
  TGI: > 100 µM
[8]
  TGI: > 100 µM
[9]
  TGI: > 100 µM
[10]
  TGI: > 100 µM

## CC1(C)CCC[C@@]2(C)C1CC[C@@]1(CO)O[C@H](C3=CC(=O)OC3O)C[C@H]12 (stereo not given in full)
[1]
  TGI: > 53.5 µM
[2]
  TGI: 10 µM
[3]
  TGI: 60.3 µM
[4]
  TGI: 31.3 µM
[5]
  TGI: 42.5 µM
[6]
  TGI: 3.42 µM
[7]
  TGI: 26.7 µM
[8]
  TGI: 26.6 µM
[9]
  TGI: 36.2 µM
[10]
  TGI: 23.7 µM

## COc1ccc(O[C@H](CO)C[C@@H]2COC(C)(C)O2)cc1
[1]
  TGI: > 100 µM
[2]
  TGI: > 100 µM
[3]
  TGI: > 100 µM
[4]
  TGI: > 100 µM
[5]
  TGI: > 100 µM
[6]
  TGI: > 100 µM
[7]
  TGI: > 100 µM
[8]
  TGI: > 100 µM
[9]
  TGI: > 100 µM
[10]
  TGI: > 100 µM

## CC1(C)N=C(/C(Cl)=[N+](/[O-])C(=O)c2ccc(Cl)cc2)C(C)(C)N1O
[1]
  TGI: > 100 µM
[2]
  TGI: 45.7 µM
[3]
  TGI: > 100 µM
[4]
  TGI: 63 µM
[5]
  TGI: > 100 µM
[6]
  TGI: 20.4 µM
[7]
  TGI: 32.7 µM
[8]
  TGI: 48.6 µM
[9]
  TGI: 45.3 µM
[10]
  TGI: 38 µM

Reference: PubChem BioAssay (NCI)
